In PubChem BioAssay (NCI):
Several values for one entry are separate records, joined by “and”; a condition that tells them apart may be missing. Equal values may be shown once.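 All cell lines were grown in 96-well plates and treated with compound for 48 hours. The concentration for 50% growth inhibition is given as GI50. TGI is the concentration that stops growth completely.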

How the values were obtained:
Experiment in all cases: NCI tumour cell line growth inhibition, 48 h
HCC-2998 colon = system: HCC-2998 colon
KM12 colon = system: KM12 colon
UACC-257 melanoma = system: UACC-257 melanoma
SNB-19 CNS = system: SNB-19 CNS
786-0 renal = system: 786-0 renal
SK-OV-3 ovarian = system: SK-OV-3 ovarian
A498 renal = system: A498 renal
MDA-MB-231 breast = system: MDA-MB-231 breast
EKVX NSCLC = system: EKVX NSCLC
BT-549 breast = system: BT-549 breast

Compound	GI50 (HCC-2998 colon) [µM]	TGI (HCC-2998 colon)	GI50 (KM12 colon) [µM]	TGI (KM12 colon)	GI50 (UACC-257 melanoma) [µM]	TGI (UACC-257 melanoma)	GI50 (SNB-19 CNS) [µM]	TGI (SNB-19 CNS) [µM]	GI50 (786-0 renal) [µM]	TGI (786-0 renal)	GI50 (SK-OV-3 ovarian) [µM]	TGI (SK-OV-3 ovarian) [µM]	GI50 (A498 renal) [µM]	TGI (A498 renal)	GI50 (MDA-MB-231 breast) [µM]	TGI (MDA-MB-231 breast)	GI50 (EKVX NSCLC) [µM]	TGI (EKVX NSCLC)	GI50 (BT-549 breast) [µM]	TGI (BT-549 breast) [µM]
COC(=O)Nc1nc2ccc(S(=O)(=O)c3ccc(NC(=O)Nc4cc(C(F)(F)F)ccc4F)cc3)cc2[nH]1	> 25	> 25 µM	> 21.1	> 25 µM	> 25	> 25 µM	> 25	> 25	> 25	> 25 µM	> 25	> 25	> 25	> 25 µM	> 25	> 25 µM	> 25	> 25 µM	> 25	> 25
Cc1cc(Cl)ccc1Nc1nc(C(F)(F)F)ccc1C(=O)Nc1cccc(C(F)(F)F)c1	3.3	15.7 µM	2.1	12.1 µM	3.2	11.6 µM	4.45	15.8	3.61	12.9 µM	2.44	10.8	2.79	7.43 µM	2.03	8.15 µM	1.85	11.1 µM	3.76	15.7
CN(CCCN(C)CCC1CCCCC1)CCC1CCCCC1	1.6	3.23 µM	2.04	4.12 µM	0.291	0.876 µM	3.76	9.98	3.46	13.7 µM	5.34	17.1	5.14	13.8 µM	1.38	4.68 µM	2.24	11.1 µM	2.64	11.1
O=C1C=C(OCCCl)C(=O)c2c(O)ccc(O)c21	1.12	3.03 µM and 2.47 µM	6.4	4.38 µM and 20.6 µM	0.762	0.358 µM and 2.44 µM	–	2.56	2.52	3.22 µM and 6.75 µM	25.2	–	2.38	2.55 µM and 4.25 µM	3.29	3.27 µM and 8.96 µM	–	3.36 µM and 3.73 µM	–	0.477
O=c1[nH]nc(-c2ccccc2)c2c(-c3ccccc3)onc12	39.7	> 96.3 µM	0.389	> 39.6 µM	6.7	> 100 µM	11.2	> 100	5.47	> 100 µM	0.981	53.6	0.287	3.69 µM	17.7	> 100 µM	1.25	> 100 µM	0.506	> 47.8
COc1cc2nncc(SCc3ccc(Cl)c(Cl)c3)c2cc1OC	–	> 100 µM	–	> 100 µM	–	> 100 µM	–	> 100	–	> 100 µM	–	> 100	–	> 100 µM	–	> 100 µM	–	> 100 µM	–	> 100
O=C1NC(c2ccccc2)N=C2Oc3ccccc3C=C12 (stereo unspecified)	–	0.238 µM	–	> 22.8 µM	–	> 100 µM	–	> 100	–	> 39 µM	–	> 100	–	> 81.8 µM	–	> 31.6 µM	–	> 100 µM	–	> 100
